Laboratory results from ChEMBL document CHEMBL4340537, “A cross-linking approach to map small molecule-RNA binding sites in cells” (Bioorg Med Chem Lett, 2019).
The source made the active and inactive calls. The rule behind the calls is not given here. Numbered stars: 1 amine (or outer) side, 2 acyl side, 3 side chain; on linkers, the order of the positions; unused ones are H or OH. Square brackets hold non-standard residues; d marks the D form. Peptide text beside a SMILES is read from it. * marks the point of attachment. Biotinyl(3aR,4R,6aS) = O=C1N[C@@H]2[C@@H](CS[C@@H]2CCCCC(=O)*)N1; N(2-Aminoethyl)Gly = O=C(CN(CCN[*:3])[*:1])[*:2]; Chlorambucil = O=C(CCCc1ccc(N(CCCl)CCCl)cc1)*; Gly(N-propargyl) = C#CCNCC(=O)O; NPrGly = CCCNCC(=O)O

Key:
microRNA 96 [1] = assay: Inhibition of miR-96 RNA in human MDA-MB-231 cells by TargetScan assay; type: cell-based
MDA-MB-231 [2] = assay: Binding affinity to pri-miR-96 RNA in human MDA-MB-231 cells assessed as increase in RNA abundance at 50 nM for 24 hrs by RT-qPCR relative to control; type: cell-based
[3] = Binding affinity to 32P-labeled pri-miR-96 RNA (unknown origin) incubated for 4 hrs by streptavidin based liquid scintillation counting dependent pull down assay
MDA-MB-231 [4] = assay: Induction of apoptosis in human MDA-MB-231 cells assessed as increase in caspase 3/7 activity up to 500 nM incubated for 48 hrs by caspase glo 3/7 assay; type: functional, cell-based
[5] = Binding affinity to pri-miR-96 RNA (unknown origin) at 1000 nM in presence of Targaprimir-96 by in vitro competitive (C-)Chem CLIP assay
MDA-MB-231 [6] = assay: Binding affinity to pri-miR-96 RNA in human MDA-MB-231 cells assessed as reduction in matured miR-96 levels at 50 nM for 24 hrs by RT-qPCR method; type: cell-based
MDA-MB-231 [7] = assay: Binding affinity to pri-miR-96 RNA in human MDA-MB-231 cells assessed as increase in FOXO1 protein expression at 50 nM for 24 hrs by RT-qPCR method; type: cell-based
microRNA 96 [8] = assay: Inhibition of miR-96 RNA in human MDA-MB-231 cells by volcano plot analysis; type: cell-based
MCF-10A = assay: Induction of apoptosis in human MCF10A cells assessed as increase in caspase 3/7 activity up to 500 nM incubated for 48 hrs by caspase glo 3/7 assay; type: cell-based

SMILES | inhibition (microRNA 96 [1]) | fold change (FC) (MDA-MB-231 [2]) | Activity [3] | Activity (MDA-MB-231 [4]) | Activity [5] | Activity (MDA-MB-231 [6]) | Activity (MDA-MB-231 [7]) | inhibition (microRNA 96 [8]) | Activity (MCF-10A)
CCCN(CC(=O)N(CC(=O)N(CCNC(=O)CCCC[C@H]1SC[C@H]2NC(=O)N[C@H]21)CC(N)=O)Cc1cn(CCCNC(=O)CCCOc2c(C(C)(C)C)cc(-c3nc4cc(N5CCN(C)CC5)ccc4[nH]3)cc2C(C)(C)C)nn1)C(=O)CN(CCNC(=O)CCCc1ccc(N(CCCl)CCCl)cc1)C(=O)CCCOc1cccc(-c2nc3ccc(-c4nc5ccc(N6CCN(C)CC6)cc5[nH]4)cc3[nH]2)c1 | Active | 1.5 | Active | Active | inactive | Active | Active | Active | –
CCCN(CC(=O)N(CC(=O)N(CCNC(=O)CCCC[C@H]1SC[C@H]2NC(=O)N[C@H]21)CC(N)=O)Cc1cn(CCCNC(=O)CCCOc2c(C(C)(C)C)cc(-c3nc4cc(N5CCN(C)CC5)ccc4[nH]3)cc2C(C)(C)C)nn1)C(=O)CN(CCNC(=O)CCCc1ccc(N(CCCl)CCCl)cc1)C(=O)CCCOc1cccc(-c2nc3ccc(-c4nc5cc(N6CCN(C)CC6)ccc5[nH]4)cc3[nH]2)c1 | – | – | – | – | – | – | – | – | Non-Toxic
CCCN(CC(=O)N(CCC)CC(=O)N(CC(N)=O)Cc1cn(CCCNC(=O)CCCOc2c(C(C)(C)C)cc(-c3nc4cc(N5CCN(C)CC5)ccc4[nH]3)cc2C(C)(C)C)nn1)C(=O)CCCOc1cccc(-c2nc3ccc(-c4nc5ccc(N6CCN(C)CC6)cc5[nH]4)cc3[nH]2)c1 | – | 1.5 | – | Active | – | Active | Active | – | Non-Toxic
C#CCN(CC(=O)N(CCNC(=O)CCCC[C@H]1SC[C@H]2NC(=O)N[C@H]21)CC(N)=O)C(=O)CN(CCC)C(=O)CN(CCNC(=O)CCCc1ccc(N(CCCl)CCCl)cc1)C(C)=O (Ac-[N(2-Aminoethyl)Gly](Chlorambucil)[NPrGly][Gly(N-propargyl)][N(2-Aminoethyl)Gly](Biotinyl(3aR,4R,6aS))-NH2) | – | – | inactive | inactive | – | inactive | inactive | – | –
